PubChem BioAssay AID330 (DTP/NCI, 2004)
Where “and” joins values, the source holds several entries; their conditions need not be identical. Equal values may be shown once. Toxic doses and inconclusive results are not listed. Rule for the calls: active = survival T/C of 150% or more; inactive = T/C below 125% in these data.

System: P388 leukemia ip, CD2F1 mice, survival T/C
Assay: NCI In Vivo Anticancer Drug Screen. Data for tumor model P388 Leukemia (intraperitoneal) in CD2F1 (CDF1) mice
Settings: endpoint: median survival time, higher = longer survival
In short: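 Mice carrying the transplanted tumor received test compound or vehicle. Survival was recorded in each group, and the value is the treated-group measurement divided by that of the vehicle-treated control group.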

[1] = dose: 50.0 mg/kg/injection, schedule: Q01DX005 (ip), vehicle: saline with Tween-80
[2] = dose: 50.0 mg/kg/injection, schedule: Q01DX005 (ip), vehicle: saline
[3] = dose: 100.0 mg/kg/injection, schedule: Q01DX005 (ip), vehicle: saline with Tween-80
[4] = dose: 200.0 mg/kg/injection, schedule: Q01DX005 (ip), vehicle: saline with Tween-80
[5] = dose: 50.0 mg/kg/injection, schedule: Q01DX009 (ip), vehicle: Klucel (hydroxypropylcellulose) (HPC)
[6] = dose: 100.0 mg/kg/injection, schedule: Q01DX009 (ip), vehicle: Klucel (hydroxypropylcellulose) (HPC)
[7] = dose: 200.0 mg/kg/injection, schedule: Q01DX009 (ip), vehicle: Klucel (hydroxypropylcellulose) (HPC)
[8] = dose: 60.0 mg/kg/injection, schedule: Q01DX005 (ip), vehicle: saline with Tween-80
[9] = dose: 120.0 mg/kg/injection, schedule: Q01DX005 (ip), vehicle: saline with Tween-80
[10] = dose: 240.0 mg/kg/injection, schedule: Q01DX005 (ip), vehicle: saline with Tween-80
[11] = dose: 100.0 mg/kg/injection, schedule: Q01DX001 (ip), vehicle: saline with Tween-80
[12] = dose: 200.0 mg/kg/injection, schedule: Q01DX001 (ip), vehicle: saline with Tween-80
[13] = dose: 400.0 mg/kg/injection, schedule: Q01DX001 (ip), vehicle: saline with Tween-80

Measured: T/C

C[n+]1c(/C=C/c2ccc([N+](=O)[O-])cc2)ccc2ccccc21
inactive: dose: 3.3 mg/kg/injection, schedule: Q01DX009 (ip), vehicle: saline sonified 100 % of control | dose: 6.5 mg/kg/injection, schedule: Q01DX009 (ip), vehicle: saline sonified 111 % of control | dose: 12.5 mg/kg/injection, schedule: Q01DX009 (ip), vehicle: saline sonified 111 % of control

N=c1c2ncn(C3OC(CO)C(O)C3O)c2ncn1O (configuration not stated)
inactive: dose: 6.25 mg/kg/injection, schedule: Q01DX005 (ip), vehicle: saline 97 % of control | dose: 12.5 mg/kg/injection, schedule: Q01DX005 (ip), vehicle: saline 101 % of control | dose: 25.0 mg/kg/injection, schedule: Q01DX005 (ip), vehicle: saline 101 % of control and 112 % of control | [1] 105 % of control | [2] 112 % of control and 94 % of control | [3] 100 % of control | [4] 108 % of control

COC(=O)NCP(=O)(CNC(=O)OC)CNC(=O)OC
inactive: [5] 100 % of control | [6] 98 % of control | [7] 100 % of control

COc1ccc(C2COc3c(ccc(O)c3C)C2)cc1OC (configuration not stated)
inactive: [8] 97 % of control | [9] 97 % of control | [10] 95 % of control

CSc1ccnc2ccccc12
inactive: dose: 12.5 mg/kg/injection, schedule: Q01DX009 (ip), vehicle: other 103 % of control | dose: 25.0 mg/kg/injection, schedule: Q01DX009 (ip), vehicle: other 118 % of control | dose: 50.0 mg/kg/injection, schedule: Q01DX009 (ip), vehicle: other 114 % of control

C=C1ON(C)C(c2ccccc2)C1S(=O)(=O)c1ccccc1 (configuration not stated)
inactive: dose: 60.0 mg/kg/injection, schedule: Q01DX005 (ip), vehicle: Klucel (hydroxypropylcellulose) (HPC) 110 % of control | dose: 120.0 mg/kg/injection, schedule: Q01DX005 (ip), vehicle: Klucel (hydroxypropylcellulose) (HPC) 105 % of control | dose: 240.0 mg/kg/injection, schedule: Q01DX005 (ip), vehicle: Klucel (hydroxypropylcellulose) (HPC) 98 % of control

C[Si](C)(C)Cn1cccc1
inactive: [8] 103 % of control | [9] 102 % of control | [10] 94 % of control

COC(=O)C(Cl)(Cl)C1(c2ccccc2)OCC(C)(C)N1C(=O)C(Cl)Cl (configuration not stated)
inactive: [11] 100 % of control | [12] 100 % of control | [13] 100 % of control

CC(C)N=C1CCCC1C(=S)SSC(=S)C1CCCC1=NC(C)C (configuration not stated)
inactive: [5] 99 % of control | [6] 99 % of control | [7] 100 % of control

CCn1c(=O)c2[nH]c(-n3c(Cl)nc4c3c(=O)n(CC)c(=O)n4CC)nc2n(CC)c1=O
inactive: [5] 101 % of control | [6] 98 % of control | [7] 120 % of control

Cc1ccc(Nc2ccc(Nc3ccc(C)cc3)c3c2C(=O)c2cccc(O)c2C3=O)cc1
inactive: dose: 50.0 mg/kg/injection, schedule: Q01DX009 (ip), vehicle: saline with Tween-80 101 % of control | dose: 100.0 mg/kg/injection, schedule: Q01DX009 (ip), vehicle: saline with Tween-80 95 % of control | dose: 200.0 mg/kg/injection, schedule: Q01DX009 (ip), vehicle: saline with Tween-80 97 % of control

O=CNc1ccc2c3c(cccc13)-c1ccccc1-2
inactive: dose: 50.0 mg/kg/injection, schedule: Q01DX005 (ip), vehicle: Klucel (hydroxypropylcellulose) (HPC) 89 % of control | dose: 100.0 mg/kg/injection, schedule: Q01DX005 (ip), vehicle: Klucel (hydroxypropylcellulose) (HPC) 97 % of control | dose: 200.0 mg/kg/injection, schedule: Q01DX005 (ip), vehicle: Klucel (hydroxypropylcellulose) (HPC) 100 % of control

COc1cccc(NC2=NCCS2)c1
inactive: [1] 102 % of control | [3] 105 % of control | [4] 98 % of control

Cc1ncc(C(=O)O)n1C(C)c1ccccc1 (configuration not stated)
inactive: [8] 108 % of control | [9] 103 % of control | [10] 110 % of control

O=C(/C=C/c1ccc(O)cc1)OCC1OC(Oc2cc(O)c3c(c2)OC(c2ccc(O)cc2)CC3=O)C(O)C(O)C1O (configuration not stated)
inactive: dose: 100.0 mg/kg/injection, schedule: Q04DX002 (ip), vehicle: saline 107 % of control | dose: 200.0 mg/kg/injection, schedule: Q04DX002 (ip), vehicle: saline 94 % of control | dose: 400.0 mg/kg/injection, schedule: Q04DX002 (ip), vehicle: saline 107 % of control

O=C(CCCCl)CC(O)(C(F)(F)F)C(F)(F)F
inactive: dose: 100.0 mg/kg/injection, schedule: Q04DX003 (ip), vehicle: saline with Tween-80 110 % of control | dose: 200.0 mg/kg/injection, schedule: Q04DX003 (ip), vehicle: saline with Tween-80 90 % of control

N#CC1=CNc2ccccc2N=C1N
inactive: [1] 104 % of control | [3] 99 % of control

CNc1c([N+](=O)[O-])cc2[nH]c(C)nc2c1[N+](=O)[O-]
inactive: dose: 6.25 mg/kg/injection, schedule: Q04DX003 (ip), vehicle: saline with Tween-80 103 % of control | dose: 12.5 mg/kg/injection, schedule: Q04DX003 (ip), vehicle: saline with Tween-80 113 % of control | dose: 25.0 mg/kg/injection, schedule: Q04DX003 (ip), vehicle: saline with Tween-80 99 % of control and 92 % of control

CC(=O)Nc1cc2cc(N=CN(C)C)ccc2oc1=O
inactive: dose: 60.0 mg/kg/injection, schedule: Q01DX005 (ip), vehicle: Klucel + Tween-80 99 % of control | dose: 120.0 mg/kg/injection, schedule: Q01DX005 (ip), vehicle: Klucel + Tween-80 104 % of control

Nc1nc2c([nH]c(=O)n2C2OC(CO)C(O)C2O)c(=O)[nH]1 (configuration not stated)
inactive: [2] 109 % of control | dose: 100.0 mg/kg/injection, schedule: Q01DX005 (ip), vehicle: saline 110 % of control | dose: 200.0 mg/kg/injection, schedule: Q01DX005 (ip), vehicle: saline 112 % of control

CCCCCCCCCCCC1=C(O)C(=O)C(Br)=C(O)C1=O
inactive: [1] 92 % of control | [3] 92 % of control

N#CCCOCN(COCCC#N)c1nc(N(COCCC#N)COCCC#N)nc(N(COCCC#N)COCCC#N)n1
inactive: dose: 7.5 mg/kg/injection, schedule: Q01DX005 (ip), vehicle: DMSO 97 % of control | dose: 15.0 mg/kg/injection, schedule: Q01DX005 (ip), vehicle: DMSO 94 % of control | dose: 30.0 mg/kg/injection, schedule: Q01DX005 (ip), vehicle: DMSO 94 % of control

COc1ccc2c(c1)OC(C)(C)C=C2
inactive: dose: 8.75 mg/kg/injection, schedule: Q01DX009 (ip), vehicle: saline with Tween-80 87 % of control | dose: 17.5 mg/kg/injection, schedule: Q01DX009 (ip), vehicle: saline with Tween-80 98 % of control | dose: 35.0 mg/kg/injection, schedule: Q01DX009 (ip), vehicle: saline with Tween-80 106 % of control | dose: 70.0 mg/kg/injection, schedule: Q01DX009 (ip), vehicle: saline with Tween-80 110 % of control

Cc1nc2ccccc2[se]1
inactive: [8] 100 % of control | [9] 92 % of control | [10] 96 % of control

c1cc(Oc2ccc3ccncc3c2)c2ccncc2c1
inactive: [11] 100 % of control | [12] 100 % of control | [13] 95 % of control

C/C(=C\c1ccccc1)C1C(C#N)C(=O)NC(=O)C1C#N (configuration not stated)
inactive: [5] 101 % of control | [6] 105 % of control | [7] 106 % of control

NC(=S)c1ccc(N=Cc2cccc([N+](=O)[O-])c2)cc1
inactive: dose: 100.0 mg/kg/injection, schedule: Q01DX001 (ip), vehicle: Klucel (hydroxypropylcellulose) (HPC) 98 % of control | dose: 200.0 mg/kg/injection, schedule: Q01DX001 (ip), vehicle: Klucel (hydroxypropylcellulose) (HPC) 124 % of control | dose: 400.0 mg/kg/injection, schedule: Q01DX001 (ip), vehicle: Klucel (hydroxypropylcellulose) (HPC) 104 % of control

Cc1cc2c(c(=O)o1)C1(C)CC(C)(O2)c2c(cc(C)oc2=O)O1
inactive: [8] 99 % of control | [9] 95 % of control | [10] 89 % of control

CS(=O)c1c(C(=O)O)cc(C(C)(C)C)cc1C(=O)O (configuration not stated)
inactive: dose: 100.0 mg/kg/injection, schedule: Q04DX002 (ip), vehicle: Klucel (hydroxypropylcellulose) (HPC) 105 % of control | dose: 200.0 mg/kg/injection, schedule: Q04DX002 (ip), vehicle: Klucel (hydroxypropylcellulose) (HPC) 107 % of control | dose: 400.0 mg/kg/injection, schedule: Q04DX002 (ip), vehicle: Klucel (hydroxypropylcellulose) (HPC) 96 % of control

C[N+](C)(C)C[c-]1[c-][c-][c-][c-]1.[Fe].[c-]1[c-][c-][cH-][c-]1
inactive: dose: 1.56 mg/kg/injection, schedule: Q01DX009 (ip), vehicle: saline with Tween-80 96 % of control | dose: 3.13 mg/kg/injection, schedule: Q01DX009 (ip), vehicle: saline with Tween-80 97 % of control | dose: 6.25 mg/kg/injection, schedule: Q01DX009 (ip), vehicle: saline with Tween-80 99 % of control | dose: 12.5 mg/kg/injection, schedule: Q01DX009 (ip), vehicle: saline with Tween-80 100 % of control
